SMILES strings stand for the structures.

A word on the inhibition: it is the share of the control response that was lost under treatment. The IC50 is the concentration at which inhibition is half-maximal.

Experiment [1] relates to SH-SY5Y. The experiment is described as follows: Neuroprotective activity in human SH-SY5Y cells under oxygen and glucose deprived condition assessed as protection against oxidative stress at 5 uM co-incubated for 4 hrs under anaerobic condition measured after 20 hrs by MTT assay relative to control. In kind it is functional. In general terms: Tetrazolium assays rely on reduction of a dye to a coloured formazan, in cell work by metabolically active cells.

Experiment [2] relates to SH-SY5Y. The experiment is described as follows: Neuroprotective activity in human SH-SY5Y cells under oxygen and glucose deprived condition assessed as cell survival at 5 uM co-incubated for 4 hrs under anaerobic condition measured after 20 hrs by MTT assay relative to control. The conditions noted are these: read-out: Survival. The class given is functional.
Experiment [3] deals with SH-SY5Y. The experiment is described as follows: Neuroprotective activity in human SH-SY5Y cells under serum-free condition assessed as protection against potassium-induced toxicity at 5 uM after 24 hrs by MTT assay relative to control. In kind it is functional.
Experiment [4] concerns SH-SY5Y. The experiment is described as follows: Neuroprotective activity in human SH-SY5Y cells under serum-free condition assessed as cell survival at 5 uM after 24 hrs by MTT assay in presence of potassium relative to control. As to conditions: read-out: Survival. The class given is functional.
Experiment [5] relates to SH-SY5Y. The experiment is described as follows: Neuroprotective activity in human SH-SY5Y cells assessed as inhibition of potassium-induced Ca2+ increase at 10 uM preincubated for 15 mins followed by potassium addition measured for 14 seconds by fluorescence assay relative to control. In kind it is functional.
Experiment [6] has as its system SH-SY5Y. In words: Neuroprotective activity in human SH-SY5Y cells under oxygen and glucose deprived condition assessed as protection against oxidative stress at 0.1 uM co-incubated for 4 hrs under anaerobic condition measured after 20 hrs by MTT assay relative to control. In kind it is functional.
Experiment [7] has as its system SH-SY5Y. In words: Neuroprotective activity in human SH-SY5Y cells under oxygen and glucose deprived condition assessed as cell survival at 0.1 uM co-incubated for 4 hrs under anaerobic condition measured after 20 hrs by MTT assay relative to control. The class given is functional. The conditions noted are these: read-out: Survival.
The subject of experiment [8] is SH-SY5Y. In words: Neuroprotective activity in human SH-SY5Y cells assessed as inhibition of potassium-induced Ca2+ increase preincubated for 15 mins followed by potassium addition measured for 14 seconds by fluorescence assay. The class given is functional, cell-based.
For experiment [9], the system named is SH-SY5Y. In words: Neuroprotective activity in human SH-SY5Y cells under oxygen and glucose deprived condition assessed as protection against oxidative stress at 0.3 uM co-incubated for 4 hrs under anaerobic condition measured after 20 hrs by MTT assay relative to control. The class given is functional.
The test system of experiment [10] is SH-SY5Y. The experiment is described as follows: Neuroprotective activity in human SH-SY5Y cells under oxygen and glucose deprived condition assessed as cell survival at 0.3 uM co-incubated for 4 hrs under anaerobic condition measured after 20 hrs by MTT assay relative to control. In kind it is functional. The conditions noted are these: read-out: Survival.
Experiment [11] has as its system SH-SY5Y. The experiment is described as follows: Neuroprotective activity in human SH-SY5Y cells under serum-free condition assessed as protection against potassium-induced toxicity at 0.3 uM after 24 hrs by MTT assay relative to control. The class given is functional.
Experiment [12] relates to SH-SY5Y. The experiment is described as follows: Neuroprotective activity in human SH-SY5Y cells under serum-free condition assessed as cell survival at 0.3 uM after 24 hrs by MTT assay in presence of potassium relative to control. The class given is functional. The conditions noted are these: read-out: Survival.

For `CC1=C(C(=O)SC(C)(C)C)C(c2ccc(C)cc2)C=C(c2ccccc2)N1` (stereo unspecified), the Activity in [1] stood at 31.16%; in experiment [3], 30.44%. Also, the viability at 5 µM came to 64.7% in experiment [2] and 67.4% in experiment [4]. Moreover, the inhibition at 10 µM in experiment [5] stood at 36.8%.

Regarding `CC1=C(C(=O)SC(C)(C)C)C(/C(C)=C/c2ccccc2)C=C(c2ccccc2)N1` (stereo unspecified), the Activity in experiment [1] is given as 35.82%; in [3] it was 35.26%. Besides, the viability at 5 µM in [2] was found to be 63.9%; in experiment [4], 69%. Also, the inhibition at 10 µM in experiment [5] turned out to be 40%.

Take `COc1ccc2[nH]cc(CCNC(C)=O)c2c1` [MELATONIN]: the Activity in [6] is 28.85%. Besides, the viability at 0.1 µM in [7] worked out at 65.8%.

`CCOC(=O)C1=C(C)NC(c2ccc(Cl)cc2)=CC1c1ccccc1` (stereo unspecified): the Activity was determined as 19.26% in experiment [1] and 36.57% in [3]. The viability at 5 µM in experiment [2] stood at 58.9%; in [4] it was 69.3%. The inhibition at 10 µM in [5] stood at 44.9%.

With `CCOC(=O)C1=C(C)NC(c2ccccc2)=CC1c1ccccc1` (stereo unspecified), the Activity in [1] turned out to be 22.76%; in experiment [3], 34.65%. The viability at 5 µM in experiment [2] came out at 60.8%; in experiment [4] it was 67.6%. Besides, in experiment [5], the inhibition at 10 µM was 32.5%.

`O=C1CCCC2=C1C(c1ccccc1)C=C(c1ccccc1)N2` (stereo unspecified): the Activity turned out to be 26.8% in experiment [1] and 28.23% in [3]. In addition, the viability at 5 µM in [2] stood at 62.1%; in [4] it was 66.4%. Also, the inhibition at 10 µM in experiment [5] was 41.2%.

With `CC1=C(C(=O)SC(C)(C)C)C(c2ccccc2)C=C(c2ccccc2)N1` (stereo unspecified), the Activity is recorded as 24.91% in [1] and 34.13% in experiment [3]. Besides, the values for the viability at 5 µM in experiment [2] and in [4] were 61.5% and 68%, respectively. Further, the inhibition at 10 µM in experiment [5] was 35.1%.

Turning to `CC(=O)C1=C(C)NC(c2ccccc2)=CC1c1ccccc1` (stereo unspecified), the Activity is listed as 9.06% in experiment [1] and 32.46% in [3]. Moreover, the viability at 5 µM is 53.9% in experiment [2] and 67.4% in experiment [4]. In addition, in [5], the inhibition at 10 µM turned out to be 33.8%.

On to `COc1ccc(C2C=C(c3ccccc3)NC(C)=C2C(=O)SC(C)(C)C)cc1` (stereo unspecified), for which the Activity in experiment [1] was 17.38%; in [3], 31.27%. In addition, the viability at 5 µM in experiment [2] was 57.6%; in [4] it was 66.7%. Moreover, in [8], the IC50 amounted to 26.8 µM. Also, the inhibition entry in experiment [8] is “Dose-dependent effect”. Further, the inhibition at 10 µM in [5] is 52.3%.

In the case of `CCOC(=O)C1=C(C)NC(c2ccc(C)cc2)=CC1c1cccs1` (stereo unspecified), the Activity was 31.04% in experiment [1] and 50.73% in experiment [3]. The viability at 5 µM in experiment [2] worked out at 64.7%; in experiment [4], 75.6%. For the same compound, the inhibition at 10 µM in experiment [5] is 36.6%.

`CCOC(=O)C1=C(CC)NC(c2ccccc2)=CC1c1ccccc1` (stereo unspecified): the results for the Activity in experiment [1] and in [3] were 17.69% and 31.37%, respectively. The viability at 5 µM was 57.6% in experiment [2] and 67.3% in experiment [4]. For the same compound, in experiment [8], the IC50 amounted to 12.8 µM. In [8], the inhibition result is “Dose-dependent effect”. For the same compound, in experiment [5], the inhibition at 10 µM came to 53.8%.

With `CC1=C(C(=O)SC(C)(C)C)C(c2ccc(Br)cc2)C=C(c2ccc(C)cc2)N1` (stereo unspecified), the Activity in [1] amounted to 21.83%; in experiment [3] it was 34.46%. Also, the results for the viability at 5 µM in experiment [2] and in experiment [4] were 60.3% and 67.2%, respectively. Besides, the inhibition at 10 µM in experiment [5] was 35.4%.

Turning to `COC(=O)C1=C(C)NC(C)=C(C(=O)OC)C1c1ccccc1[N+](=O)[O-]` [NIFEDIPINE], the figures for the Activity in experiment [9] and in experiment [11] were 12.4% and 15.76%, respectively. In addition, the viability at 0.3 µM in experiment [10] amounted to 55%; in [12], 58.7%. In addition, the inhibition at 10 µM in experiment [5] worked out at 59.8%.

Regarding `CC1=C(C(=O)SC(C)(C)C)C(c2ccc(C)cc2)C=C(c2ccc(C)cc2)N1` (stereo unspecified), the values for the Activity in [1] and in [3] were 12.66% and 36.24%, respectively. The viability at 5 µM in experiment [2] was found to be 56%; in experiment [4] it was 69.8%. The inhibition at 10 µM in experiment [5] is 12.6%.

These data come from ChEMBL document CHEMBL3217626, “Identification of 4,6-diaryl-1,4-dihydropyridines as a new class of neuroprotective agents” (Medchemcomm, 2013).
